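Here, GI50 denotes the concentration required for 50% inhibition of growth. At the TGI there is no net growth.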
Columns and labels:
Assay in all cases: NCI tumour cell line growth inhibition, 384-well format
786-0 renal = test system: 786-0 renal
A549 NSCLC = test system: A549 NSCLC
ACHN renal = test system: ACHN renal
BT-549 breast = test system: BT-549 breast
CAKI-1 renal = test system: CAKI-1 renal
CCRF-CEM leukemia = test system: CCRF-CEM leukemia
COLO 205 colon = test system: COLO 205 colon
DU-145 prostate = test system: DU-145 prostate
EKVX NSCLC = test system: EKVX NSCLC
HCC-2998 colon = test system: HCC-2998 colon
HCT-15 colon = test system: HCT-15 colon
HL-60(TB) leukemia = test system: HL-60(TB) leukemia
HOP-62 NSCLC = test system: HOP-62 NSCLC
HOP-92 NSCLC = test system: HOP-92 NSCLC
HS 578T breast = test system: HS 578T breast
IGROV1 ovarian = test system: IGROV1 ovarian
K-562 leukemia = test system: K-562 leukemia
LOX IMVI melanoma = test system: LOX IMVI melanoma
M14 melanoma = test system: M14 melanoma
MALME-3M melanoma = test system: MALME-3M melanoma
MCF7 breast = test system: MCF7 breast
MDA-MB-231 breast = test system: MDA-MB-231 breast
MDA-MB-435 melanoma = test system: MDA-MB-435 melanoma
MDA-MB-468 breast = test system: MDA-MB-468 breast
MOLT-4 leukemia = test system: MOLT-4 leukemia
NCI-H226 lung = test system: NCI-H226 lung
NCI-H23 lung = test system: NCI-H23 lung
NCI-H322M lung = test system: NCI-H322M lung
NCI-H460 NSCLC = test system: NCI-H460 NSCLC
NCI-H522 lung = test system: NCI-H522 lung
NCI/ADR-RES ovarian = test system: NCI/ADR-RES ovarian
OVCAR-3 ovarian = test system: OVCAR-3 ovarian
OVCAR-4 ovarian = test system: OVCAR-4 ovarian
OVCAR-5 ovarian = test system: OVCAR-5 ovarian
OVCAR-8 ovarian = test system: OVCAR-8 ovarian
PC-3 prostate = test system: PC-3 prostate
RPMI-8226 leukemia = test system: RPMI-8226 leukemia
RXF 393 renal = test system: RXF 393 renal
SF-268 CNS = test system: SF-268 CNS
SF-295 CNS = test system: SF-295 CNS
SF-539 CNS = test system: SF-539 CNS
SK-MEL-28 melanoma = test system: SK-MEL-28 melanoma
SK-MEL-5 melanoma = test system: SK-MEL-5 melanoma
SN12C renal = test system: SN12C renal
SNB-19 CNS = test system: SNB-19 CNS
SNB-75 CNS = test system: SNB-75 CNS
SR leukemia = test system: SR leukemia
SW-620 colon = test system: SW-620 colon
TK-10 renal = test system: TK-10 renal
UACC-257 melanoma = test system: UACC-257 melanoma
UO-31 renal = test system: UO-31 renal

In the case of `COc1cc(OC)c(/C=C/S(=O)(=O)Cc2ccc(OC)c(NCC(=O)O)c2)c(OC)c1`, the GI50 ([…]-0 renal) is reported as 30.7 nM, the TGI (786-0 renal) is reported as 607 nM and the GI50 (A549 NSCLC) is reported as 61.3 nM. The TGI (A549 NSCLC) was greater than 100 µM, the GI50 (ACHN renal) was 58.9 nM and the TGI (ACHN renal) was greater than 100 µM. It also gave a GI50 (BT-549 breast) of 48.1 nM, a TGI (BT-549 breast) of 344 nM and a GI50 (CAKI-1 renal) of 46 nM. For the same compound, the TGI (CAKI-1 renal) was greater than 100 µM, the GI50 (CCRF-CEM leukemia) was 49.4 nM and the TGI (CCRF-CEM leukemia) was 157 nM. The GI50 (COLO 205 colon) was 215 nM, the TGI (COLO 205 colon) was 537 nM and the GI50 (DU-145 prostate) was 177 nM. The TGI (DU-145 prostate) was 1040 nM, the GI50 (EKVX NSCLC) was 41.1 nM and the TGI (EKVX NSCLC) was greater than 100 µM. The GI50 (HCC-2998 colon) was 40.5 nM, the TGI (HCC-2998 colon) was 264 nM and the GI50 (HCT-15 colon) was 32.3 nM. It also gave a TGI (HCT-15 colon) of 373 nM, a GI50 (HL-60(TB) leukemia) of 33.6 nM and a TGI (HL-60(TB) leukemia) of 101 nM. The GI50 (HOP-62 NSCLC) was 42.6 nM, the TGI (HOP-62 NSCLC) was greater than 100 µM and the GI50 (HOP-92 NSCLC) was 38.5 nM. The TGI (HOP-92 NSCLC) was 4.17 µM, the GI50 (HS 578T breast) was 15.4 nM and the TGI (HS 578T breast) was 34.7 nM. For the same compound, the GI50 (IGROV1 ovarian) was 60.4 nM, the TGI (IGROV1 ovarian) was greater than 100 µM and the GI50 (K-562 leukemia) was 32.4 nM. It also gave a TGI (K-562 leukemia) of 109 nM, a GI50 (LOX IMVI melanoma) of 45.7 nM and a TGI (LOX IMVI melanoma) of 362 nM. It also gave a GI50 (M14 melanoma) of 25.9 nM, a TGI (M14 melanoma) of 82.7 nM and a GI50 (MALME-3M melanoma) of 25.9 nM. For the same compound, the TGI (MALME-3M melanoma) was 92.9 nM, the GI50 (MCF7 breast) was 47.3 nM and the TGI (MCF7 breast) was 26 µM. For the same compound, the GI50 (MDA-MB-231 breast) was 92.9 nM, the TGI (MDA-MB-231 breast) was greater than 100 µM and the GI50 (MDA-MB-435 melanoma) was 17.1 nM. The TGI (MDA-MB-435 melanoma) was 36.6 nM, the GI50 (MDA-MB-468 breast) was 17.5 nM and the TGI (MDA-MB-468 breast) was 42.3 nM. The GI50 (MOLT-4 leukemia) was 64.1 nM, the TGI (MOLT-4 leukemia) was 187 nM and the GI50 (NCI-H226 lung) was 38.3 nM. For the same compound, the TGI (NCI-H226 lung) was greater than 100 µM, the GI50 (NCI-H23 lung) was 24.9 nM and the TGI (NCI-H23 lung) was 77.4 nM. It also gave a GI50 (NCI-H322M lung) of 90.9 nM, a TGI (NCI-H322M lung) greater than 100 µM and a GI50 (NCI-H460 NSCLC) of 22.6 nM. The TGI (NCI-H460 NSCLC) was 59.3 nM, the GI50 (NCI-H522 lung) was 14.4 nM and the TGI (NCI-H522 lung) was 33 nM. The GI50 (NCI/ADR-RES ovarian) was 16.4 nM, the TGI (NCI/ADR-RES ovarian) was 36.4 nM and the GI50 (OVCAR-3 ovarian) was 16.8 nM. For the same compound, the TGI (OVCAR-3 ovarian) was 38.2 nM, the GI50 (OVCAR-4 ovarian) was 24.6 nM and the TGI (OVCAR-4 ovarian) was 95.5 nM. For the same compound, the GI50 (OVCAR-5 ovarian) was 135 nM, the TGI (OVCAR-5 ovarian) was greater than 100 µM and the GI50 (OVCAR-8 ovarian) was 30.3 nM. The TGI (OVCAR-8 ovarian) was 93.8 nM, the GI50 (PC-3 prostate) was 31.5 nM and the TGI (PC-3 prostate) was greater than 100 µM. The GI50 (RPMI-8226 leukemia) was 19 nM, the TGI (RPMI-8226 leukemia) was 37.5 nM and the GI50 (RXF 393 renal) was 16.8 nM. The TGI (RXF 393 renal) was 49.4 nM, the GI50 (SF-268 CNS) was 51 nM and the TGI (SF-268 CNS) was 2040 nM. The GI50 (SF-295 CNS) was 23.1 nM, the TGI (SF-295 CNS) was 57.6 nM and the GI50 (SF-539 CNS) was 20.8 nM. It also gave a TGI (SF-539 CNS) of 50.8 nM, a GI50 (SK-MEL-28 melanoma) of 63.7 nM and a TGI (SK-MEL-28 melanoma) greater than 100 µM. The GI50 (SK-MEL-5 melanoma) was 19.5 nM, the TGI (SK-MEL-5 melanoma) was 45.8 nM and the GI50 (SN12C renal) was 63.8 nM. It also gave a TGI (SN12C renal) greater than 100 µM, a GI50 (SNB-19 CNS) of 43.9 nM and a TGI (SNB-19 CNS) greater than 100 µM. For the same compound, the GI50 (SNB-75 CNS) was 35.1 nM, the TGI (SNB-75 CNS) was 211 nM and the GI50 (SR leukemia) was 16.1 nM. It also gave a TGI (SR leukemia) of 31.6 nM, a GI50 (SW-620 colon) of 33.8 nM and a TGI (SW-620 colon) greater than 100 µM. It also gave a GI50 (TK-10 renal) of 50.9 nM, a TGI (TK-10 renal) greater than 100 µM and a GI50 (UACC-257 melanoma) of 17.7 nM. It also gave a TGI (UACC-257 melanoma) of 370 nM, a GI50 (UO-31 renal) of 86.2 nM and a TGI (UO-31 renal) greater than 100 µM.
